Test results from US20250051277A1, “DELIVERY OF THERAPEUTIC ALKALOID COMPOUNDS” (Sensorium Therapeutics, Inc., priority 2021, published 2025).
Read-outs that look alike come from different tables or passages of the source.

What was measured:
[1] = format: physicochemical; conditions: SGF with pepsin, pH 1.5, 37° C., 0.5 mM
[2] = format: physicochemical; conditions: DI water, 25° C., 0.5 mM

Row | SMILES | Condition 1 Conversion (%) ([1]; time 1 min) | Condition 1 Conversion (%) ([1]; time 5 min) | Condition 1 Conversion (%) ([1]; time 30 min) | Condition 1 Conversion (%) ([1]; time 1 h) | Condition 1 Conversion (%) ([1]; time 4 h) | Condition 1 Conversion (%) ([1]; time 24 h) | Condition 2 Conversion (%) ([2]; time 1 min) | Condition 2 Conversion (%) ([2]; time 5 min) | Condition 2 Conversion (%) ([2]; time 30 min) | Condition 2 Conversion (%) ([2]; time 1 h) | Condition 2 Conversion (%) ([2]; time 4 h) | Condition 2 Conversion (%) ([2]; time 24 h)
1 | COc1ccc([C@@]23CCC(=NNc4ccc(C(=O)O)cc4)C[C@@H]2N(C)CC3)cc1OC [Compound 363, 4-[2-[(3aS,7aS)-3a-(3,4-dimethoxyphenyl)-1-methyl-2,3,4,5,7,7a-hexahydroindol-6-ylidene]hydrazino]benzoic acid] | 0% | 0% | 0% | 2.1% | 27.1% | 46.7% | 0% | 0% | 0% | 0% | 0% | 8.1%
2 | COc1ccc([C@@]23CCC(=NNc4ncccc4C)C[C@@H]2N(C)CC3)cc1OC [Compound 364, (3aS,7aS)-3a-(3,4-dimethoxyphenyl)-1-methyl-6-(2-(3-methylpyridin-2-yl)hydrazineylidene)octahydro-1H-indole] | 10% | 100% | 14.91% | 16.09% | 77.07% | 90.5% | 0% | 0% | 0% | 35.78% | 47% | 78.89%
3 | COc1ccc([C@@]23CCC(=NNc4cnccn4)C[C@@H]2N(C)CC3)cc1OC [Compound 365, N-[[(3aS,7aS)-3a-(3,4-dimethoxyphenyl)-1-methyl-2,3,4,5,7,7a-hexahydroindol-6-ylidene]amino]pyrazin-2-amine] | 0% | 8.9% | 47.1% | 77.4% | 94.1% | 100% | 0% | 0% | 10.11% | 11.33% | 12.6% | 17.4%
4 | COc1ccc([C@@]23CCC(=NNc4ccc5ccccc5n4)C[C@@H]2N(C)CC3)cc1OC [Compound 366, N-[[(3aS,7aS)-3a-(3,4-dimethoxyphenyl)-1-methyl-2,3,4,5,7,7a-hexahydroindol-6-ylidene]amino]quinolin-2-amine] | 0% | 8.9% | 47.1% | 77.4% | 94.1% | 100% | 0% | 0% | 10.11% | 11.33% | 12.6% | 17.4%
5 | COc1ccc([C@@]23CCC(=NNCc4cccc(C)c4)C[C@@H]2N(C)CC3)cc1OC [Compound 367, N-[[(3aS,7aS)-3a-(3,4-dimethoxyphenyl)-1-methyl-2,3,4,5,7,7a-hexahydroindol-6-ylidene]amino]-1-(m-tolyl)methanamine] | 100% | 100% | 100% | 100% | 100% | 100% | 5% | 8.3% | 11.5% | 11.92% | 13.32% | 20%
